Data published in US20230058623A1, “NOVEL HETEROARYL-TRIAZOLE COMPOUNDS AS PESTICIDES” (Bayer Aktiengesellschaft, priority 2019, published 2023).

Columns and labels:
Assay type in all cases: in vivo
[1] = tested on: adult engorged female ticks (Rhipicephalus microplus); experiment: Rhipicephalus (Boophilus) microplus injection test; conditions: 168 h, application rate 4 μg/tick, egg deposition after 7 days, read-out: activity (efficacy: infertile eggs)
Outline: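 Efficacy is scored from egg fertility, with 100% meaning every egg infertile and 0% every egg fertile. Five engorged females per test received 1 μL DMSO solution abdominally. Eggs of unclear fertility were kept until hatching, about 42 days.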

[2] = tested on: adult unfed cat fleas (Ctenocephalides felis); experiment: Ctenocephalides felis oral test; conditions: 48 h, read-out: activity (mortality)
Outline: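 About 20 adult unfed cat fleas fed through parafilm on citrated cattle blood containing compound (from a DMSO concentrate). Blood held at 37° C, fleas at room temperature. Mortality in % scored after 2 days.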

[3] = tested on: larvae of the banded cucumber beetle (Diabrotica balteata); experiment: Diabrotica balteata spray test; conditions: 168 h, after 7 days, wheat seeds, read-out: activity (efficacy: seedlings grown); for pest or weed control at 32 µg/disc, 100 g/ha: application rate 100 g/ha (=32 μg/well)
Outline: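 Wheat seeds germinated 1 day on agar were sprayed with compound diluted in water with 1000 ppm emulsifier, then infested with 10-20 Diabrotica balteata larvae. Efficacy in % scored after 7 days: 100% = seedlings grown as untreated, uninfected control; 0% = no seedlings grown.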

[4] = tested on: green peach aphid (Myzus persicae); experiment: Myzus persicae oral test; conditions: 120 h, read-out: activity (mortality)
Outline: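 Oral uptake format: water-diluted acetone concentrate of compound is blended into IPL41 medium carrying 33%+15% sugar and offered under a parafilm membrane. Percentage of dead insects is recorded after 5 days.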

[5] = tested on: green peach aphid (Myzus persicae); experiment: Myzus persicae spray test; conditions: foliar, 120 h, after 5 days, Chinese cabbage leaf disks; for mortality at 500 g/ha: application rate 500 g/ha; for mortality at 100 g/ha: application rate 100 g/ha, read-out: activity (mortality)
Outline: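 Chinese cabbage leaf disks infested with all aphid instars were sprayed with compound diluted in water containing emulsifier (1000 ppm). Mortality (%) was scored after 5 days, 100% meaning all aphids killed.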

[6] = tested on: larvae of the southern green stink bug (Nezara viridula); experiment: Nezara viridula spray test; conditions: 96 h, after 4 days, barley plants; for mortality at 500 g/ha: application rate 500 g/ha, read-out: activity (mortality); for mortality at 100 g/ha: application rate 100 g/ha
Outline: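 Barley plants sprayed with the active compound in emulsifier-containing water, then infested with stink bug larvae. Mortality scored in % after 4 days, with 100% meaning all insects killed.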

[7] = tested on: fall armyworm larvae (Spodoptera frugiperda); experiment: Spodoptera frugiperda spray test; conditions: 168 h, application rate 100 g/ha, after 7 days, maize leaf sections
Outline: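 Maize leaf sections were sprayed with compound formulated in solvent and diluted in water containing 1000 ppm emulsifier, then infested with fall armyworm larvae after drying. Percent mortality was scored after 7 days (100% = all caterpillars dead, 0% = none).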

[8] = tested on: adult mosquitoes Anopheles funestus strain FUMOZ-R; experiment: Anopheles funestus test (ANPHFU surface treatment & contact assay); conditions: surface concentration 20 mg/m^2, exposure 30 minutes, 24 hours after contact, read-out: efficacy (mortality)
Method: Anopheles funestus Test (ANPHFU Surface Treatment & Contact Assay)
(§1) Solvent: Aceton+2000 ppm rapeseed oil methyl ester (RME)
In order to produce a sufficient, active ingredient containing solution it is necessary to solve the test compound in the solvent-mix (acetone at 2 mg/ml/RME 2000 ppm). This solution is pipetted onto a glazed tile and after evaporation of the acetone, adult mosquitoes of the species Anopheles funestus strain FUMOZ-R (Hunt et al., Med. Vet. Entomol. 2005 September; 19(3): 271-275) are placed onto the dried surface. The exposure time is 30 minutes.
(§2) Mortality in percent (%) is determined 24 hours after contact of the insects to the treated surface. 100% mortality means that all tested insects are dead, whereas 0% means that no insect died.

[9] = tested on: adult flies Musca domestica strain WHO-N; experiment: Musca domestica test (MUSCDO surface treatment & contact assay); conditions: 24 hours after contact, read-out: efficacy (mortality); for mortality at 20 mg/m2: surface concentration 20 mg/m^2, exposure 30 minutes
Method: Musca domestica Test (MUSCDO Surface Treatment & Contact Assay)
as §1
In order to produce a sufficient, active ingredient containing solution it is necessary to solve the test compound in the solvent-mix (acetone at 2 mg/ml/RME 2000 ppm). This solution is pipetted onto a glazed tile and after evaporation of the acetone, adult flies of the species Musca domestica strain WHO-N are placed onto the dried surface. The exposure time is 30 minutes.
as §2

[10] = tested on: Rhipicephalus (Boophilus) microplus larvae (strain Parkhurst, resistant against synthetic pyrethroids); experiment: Rhipicephalus (Boophilus) microplus in-vitro contact test, larval cattle tick; conditions: after 48 hours, read-out: activity (efficacy: larvae dead or moribund); for pest or weed control at 1 µg/cm2, 100 g/ha: application rate 1 μg/cm^2 (=100 g/ha); for pest or weed control at 5 µg/cm2, 500 g/ha: application rate 5 μg/cm^2 (=500 g/ha)
Outline: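 Acetone solutions were coated onto glass tube walls, giving 5 μg/cm^2 at 900 ppm. Once dry, 20–50 pyrethroid-resistant Parkhurst larvae were added per tube and held 48 h at 27 °C and 85% RH. Efficacy was scored by negative geotaxis as the percentage of dead or moribund larvae.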

[11] = tested on: adult cat fleas (Ctenocephalides felis); experiment: Ctenocephalides felis in-vitro contact test, adult cat flea; conditions: application rate 5 μg/cm^2 (=500 g/ha), after 48 hours, read-out: activity (efficacy: fleas dead or moribund)
Outline: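 Acetone solutions of compound were coated onto inner walls of glass tubes (900 ppm giving 5 μg/cm^2) and dried; 5-10 adult C. felis were then held 48 h at room temperature. Efficacy = % fleas dead or moribund, judged by inability to escape a 45-50° C heating plate within 5 min.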

[12] = tested on: adult brown dog ticks (Rhipicephalus sanguineus); experiment: Rhipicephalus sanguineus in-vitro contact test, adult brown dog ticks; conditions: application rate 5 μg/cm^2 (=500 g/ha), after 48 hours, read-out: activity (efficacy: ticks dead or moribund)
Outline: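 Compound in acetone was coated onto inner walls of glass tubes by rotation (2 h, 30 rpm); 900 ppm gives 5 μg/cm^2. After drying, 5-10 adult ticks were enclosed per tube at room temperature; after 48 h, heat-escape test at 45-50° C scored dead/moribund ticks as % efficacy.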

[13] = tested on: brown planthopper (Nilaparvata lugens); experiment: Nilaparvata lugens spray test; conditions: 96 h, after 4 days, rice plants; for mortality at 500 g/ha: application rate 500 g/ha
Method: Nilaparvata lugens—Spray Test
To produce a suitable preparation of active compound, 1 part by weight of active compound is mixed with the stated amount of solvents and is diluted with water, containing an emulsifier concentration of 1000 ppm, to the desired concentration. Further test concentrations are prepared by dilution with emulsifier containing water.
Rice plants (Oryza sativa) are sprayed with a preparation of the active ingredient of the desired concentration and the plants are infested with the brown planthopper (Nilaparvata lugens).
After 4 days mortality in % is determined. 100% means all planthoppers have been killed and 0% means none of the planthoppers have been killed.

[14] = tested on: adult mosquitoes Aedes aegypti strain MONHEIM; experiment: Aedes aegypti test (AEDSAE surface treatment & contact assay); conditions: 24 hours after contact, read-out: efficacy (mortality); for mortality at 20 mg/m2: surface concentration 20 mg/m^2, exposure 30 minutes
Outline: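 Compound in acetone (2 mg/ml) with 2000 ppm RME dried onto glazed tile; adults exposed to the treated surface for 30 min. Percent mortality scored 24 h after contact.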

[15] = surface concentration 4 mg/m^2, exposure 30 minutes

Row | SMILES | pest or weed control at 32 µg/disc, 100 g/ha [3] [%] | mortality at 4 ppm [4] [%] | mortality at 500 g/ha [6] [%] | mortality at 100 g/ha [7] [%] | mortality at 20 mg/m2 [9] [%] | pest or weed control at 1 µg/cm2, 100 g/ha [10] [%] | pest or weed control at 5 µg/cm2, 500 g/ha [10] [%] | pest or weed control at 5 µg/cm2 [11] [%] | pest or weed control at 5 µg/cm2, 500 g/ha [12] [%] | mortality at 500 g/ha [13] [%] | mortality at 100 g/ha [5] [%] | other results
1 | CC(NC(=O)c1cc(C(F)(F)F)cc(C(F)(F)F)c1)c1nc(C(F)F)nn1-c1ccc(C(=O)N2CCOCC2)cn1 (racemic) [Example I-83, N-[1-[5-(Difluoromethyl)-2-[5-(morpholine-4-carbonyl)-2-pyridyl]-1,2,4-triazol-3-yl]ethyl]-3,5-bis(trifluoromethyl)benzamide] | 100 | 100 | 100 | 100 | 80 to 100 | – | – | – | – | – | – | pest or weed control at 0.004 mg [1]: 100%; mortality at 100 ppm [2]: 100%; pest or weed control at 160 µg/disc, 500 g/ha ([3]; application rate 500 g/ha (=160 μg/well)): 100%; mortality at 20 ppm [4]: 100%; mortality at 500 g/ha [5]: 90%; mortality at 20 mg/m2 [8]: 80 to 100%
2 | C[C@H](NC(=O)c1cc(C(F)(F)F)cc(C(F)(F)F)c1)c1ncnn1-c1ccc(C(=O)N2CC(C)(C)OC(C)(C)C2)cn1 [Example I-77] | 100 | – | 100 | 100 | 80 to 100 | 100 | 100 | 100 | 80 | 100 | – | –
3 | Cc1nc([C@H](C)NC(=O)c2cc(C(F)(F)F)cc(C(F)(F)F)c2)n(-c2ccc(C(=O)N3CC(C)(C)OC(C)(C)C3)cn2)n1 [Example I-78] | – | – | 100 | 100 | – | 100 | 100 | – | 100 | 100 | – | –
4 | C[C@H](NC(=O)c1cc(C(F)(F)F)cc(S(C)(=O)=O)c1)c1ncnn1-c1ccc(C(=O)N2CCOCC2)cn1 [Example I-102] | 100 | 100 | – | 100 | – | – | – | 80 | – | – | 90 | mortality at 100 g/ha [6]: 100%; mortality at 100 g/ha ([13]; application rate 100 g/ha): 90%; mortality at 4 mg/m2 [14, 15]: 80 to 100%; mortality at 20 mg/m2 [14]: 80 to 100%
5 | C[C@H](NC(=O)c1cc(Cl)cc(S(C)(=O)=O)c1)c1ncnn1-c1ccc(C(=O)N2C[C@H](C)O[C@@H](C)C2)cn1 [Example I-122] | – | 100 | 100 | – | – | – | – | 80 | – | 90 | – | mortality at 500 g/ha [5]: 90%; mortality at 100 g/ha [6]: 90%
6 | CCc1nc([C@H](C)NC(=O)c2cc(C(F)(F)F)cc(C(F)(F)F)c2)n(-c2ccc(C(=O)N3C[C@@H](C)O[C@@H](C)C3)cn2)n1 [Example I-130] | 100 | – | 100 | 100 | 80 to 100 | 100 | 100 | 100 | 100 | 100 | 90 | mortality at 4 mg/m2 [9, 15]: 80 to 100%
7 | CCc1nc([C@H](C)NC(=O)c2cc(C(F)(F)F)cc(C(F)(F)F)c2)n(-c2ccc(C(=O)N3CCOCC3)cn2)n1 [Example I-131] | 100 | – | 100 | 100 | 80 to 100 | 100 | 100 | 100 | 100 | 100 | 90 | mortality at 20 mg/m2 [14]: 80 to 100%
8 | CCc1nc([C@H](C)NC(=O)c2cc(Br)cc(OC(F)(F)F)c2)n(-c2ccc(C(=O)N3CCOCC3)cn2)n1 [Example I-134] | 100 | – | 100 | 100 | – | – | – | – | – | 100 | 90 | –
9 | Cc1nc([C@H](C)NC(=O)c2cc(C(F)(F)F)cc(C(F)(F)F)c2)n(-c2cnc(C(=O)N3C[C@@H](C)O[C@@H](C)C3)cn2)n1 [Example I-138] | 100 | – | 100 | 100 | 80 to 100 | 100 | 100 | 100 | 100 | 100 | 90 | –
